These are literature values, as cited in US10188773B2, “Compositions and devices of poly-4-hydroxybutyrate” (Tepha, Inc., priority 2013, dated 2019).

The conditions of this series: metabolism in the body; Nelson et al. 1981, Sendelbeck et al. 1985.

Regarding `O=C(O)CCCO` [4HB, 4-hydroxybutyric acid], the half-life entry is reported as “approximately 27 minutes”.
